The term melting point denotes the temperature, or range, at which the solid turns liquid.

For `O=C(Nc1nc(-c2ccco2)c(C(=O)c2ccccn2)s1)c1ccno1` [Compound 242, N-[4-(2-Furyl)-5-(pyridin-2-ylcarbonyl)thiazol-2-yl]isoxazole-5-carboxamide], the melting point lay within 223 to 230 °C.
The value for `Cc1cc(C(=O)Nc2nc(-c3ccco3)c(C(=O)c3ccccn3)s2)no1` [Compound 243, N-[4-(2-Furyl)-5-(pyridin-2-ylcarbonyl)thiazol-2-yl]-5-methylisoxazole-3-carboxamide] was 209 to 213 °C; that for `O=C(Nc1nc(-c2ccco2)c(C(=O)c2ccccn2)s1)c1ccc2snnc2c1` [Compound 244, N-[4-(2-Furyl)-5-(pyridin-2-ylcarbonyl)thiazol-2-yl]-1,2,3-benzothiadiazole-5-carboxamide] was 213 to 218 °C.
Consider `Cn1nnc2ccc(C(=O)Nc3nc(-c4ccco4)c(C(=O)c4ccccn4)s3)cc21` [Compound 245, N-[4-(2-Furyl)-5-(pyridin-2-ylcarbonyl)thiazol-2-yl]-1-methyl-1H-benzotriazole-6-carboxamide], for which the melting point lay within 230 to 231 °C.
The value for `CC(O)c1cc2cc(C(=O)Nc3nc(-c4ccco4)c(C(=O)c4ccccn4)s3)ccc2o1` (stereo not drawn) [Compound 246, N-[4-(2-Furyl)-5-(pyridin-2-ylcarbonyl)thiazol-2-yl]-2-(1-hydroxyethyl)-1-benzofuran-5-carboxamide] was 246 to 249 °C.
The value for `CC(C)(O)c1cc2cc(C(=O)Nc3nc(-c4ccco4)c(C(=O)c4ccccn4)s3)ccc2o1` [Compound 247, N-[4-(2-Furyl)-5-(pyridin-2-ylcarbonyl)thiazol-2-yl]-2-(1-hydroxy-1-methylethyl)-1-benzofuran-5-carboxamide] was 230 to 231 °C.
`O=C(Nc1nc(-c2ccco2)c(C(=O)c2ccccn2)s1)c1cnc2occc2c1` [Compound 248, N-[4-(2-Furyl)-5-(pyridin-2-ylcarbonyl)thiazol-2-yl]furo[2,3-b]pyridine-5-carboxamide] showed a melting point of 234 to 235 °C.
The value for `CCOC(=O)Nc1nc(-c2ccco2)c(C(=O)c2ccccn2)s1` [Compound 250, Ethyl N-[4-(2-furyl)-5-(pyridin-2-ylcarbonyl)thiazol-2-yl]carbamate] was 158 to 159 °C; that for `O=C(Nc1nc(-c2ccco2)c(C(=O)c2ccccn2)s1)OC1CCC1` [Compound 251, Cyclobutyl N-[4-(2-furyl)-5-(pyridin-2-ylcarbonyl)thiazol-2-yl]carbamate] was 152 to 153 °C.
In the case of `O=C(Nc1nc(-c2ccco2)c(C(=O)c2ccccn2)s1)OC1CCCC1` [Compound 252, Cyclopentyl N-[4-(2-furyl)-5-(pyridin-2-ylcarbonyl)thiazol-2-yl]carbamate] it was 162 to 163 °C.
Turning to `O=C(Nc1nc(-c2ccco2)c(C(=O)c2ccccn2)s1)OC1CCOCC1` [Compound 253, 4-Tetrahydropyranyl N-[4-(2-furyl)-5-(pyridin-2-ylcarbonyl)thiazol-2-yl]carbamate], the melting point fell in the range of 144 to 145 °C.
The value for `CN1CCC(OC(=O)Nc2nc(-c3ccco3)c(C(=O)c3ccccn3)s2)CC1` [Compound 254, 1-Methylpiperidin-4-yl N-[4-(2-furyl)-5-(pyridin-2-ylcarbonyl)thiazol-2-yl]carbamate] was 222 to 225 °C.
The value for `O=C(Nc1nc(-c2ccco2)c(C(=O)c2ccccn2)s1)OC(CF)CF` [Compound 255, 2-Fluoro-1-(fluoromethyl)ethyl N-[4-(2-furyl)-5-(pyridin-2-ylcarbonyl)thiazol-2-yl]carbamate] was 158 to 159 °C; that for `O=C(c1ccccn1)c1sc(NC(=O)N2CCOCC2)nc1-c1ccco1` [Compound 256, N-[4-(2-Furyl)-5-(pyridin-2-ylcarbonyl)thiazol-2-yl]morpholine-4-carboxamide] was 144 to 145 °C; that for `O=C(c1ccccn1)c1sc(NC(=O)N2CCCCC2)nc1-c1ccco1` [Compound 257, N-[4-(2-Furyl)-5-(pyridin-2-ylcarbonyl)thiazol-2-yl]piperidine-1-carboxamide] was 182 to 185 °C.
In the case of `CC(C)NC(=O)Nc1nc(-c2ccco2)c(C(=O)c2ccccn2)s1` [Compound 258, N-[4-(2-Furyl)-5-(pyridin-2-ylcarbonyl)thiazol-2-yl]-N′-isopropylurea], the melting point lay in the range of 182 to 186 °C.
As to `COCCNC(=O)Nc1nc(-c2ccco2)c(C(=O)c2ccccn2)s1` [Compound 260, N-[4-(2-Furyl)-5-(pyridin-2-ylcarbonyl)thiazol-2-yl]-N′-(2-methoxyethyl)urea], the melting point lay in the range of 150 to 151 °C.
The molecule `COCCCNC(=O)Nc1nc(-c2ccco2)c(C(=O)c2ccccn2)s1` [Compound 261, N-[4-(2-Furyl)-5-(pyridin-2-ylcarbonyl)thiazol-2-yl]-N′-(3-methoxypropyl)urea] displayed a melting point of 169 to 170 °C.
Turning to `O=C(CCl)Nc1nc(-c2ccco2)c(C(=O)c2ccccn2)s1` [Compound 262, 2-Chloro-N-[4-(2-furyl)-5-(pyridin-2-ylcarbonyl)thiazol-2-yl]acetamide], the melting point fell in the range of 184 to 185 °C.
`O=C(CN1CCOCC1)Nc1nc(-c2ccco2)c(C(=O)c2ccccn2)s1` [Compound 264, N-[4-(2-Furyl)-5-(pyridin-2-ylcarbonyl)thiazol-2-yl]morpholinoacetamide] displayed a melting point of 170 to 171 °C.
As to `C[C@@H]1CN(CC(=O)Nc2nc(-c3ccco3)c(C(=O)c3ccccn3)s2)C[C@H](C)O1` [Compound 265, 2-(cis-2,6-Dimethylmorpholino)-N-[4-(2-furyl)-5-(pyridin-2-ylcarbonyl)thiazol-2-yl]acetamide], the melting point is 188 to 191 °C.
In the case of `CC1CCN(CC(=O)Nc2nc(-c3ccco3)c(C(=O)c3ccccn3)s2)CC1` [Compound 266, N-[4-(2-Furyl)-5-(pyridin-2-ylcarbonyl)thiazol-2-yl]-2-(4-methylpiperidino)acetamide] it was 104 to 106 °C; in that of `O=C(CN1CCC2(CC1)OCCO2)Nc1nc(-c2ccco2)c(C(=O)c2ccccn2)s1` [Compound 269, 2-(1,4-Dioxa-8-azaspiro[4.5]decan-8-yl)-N-[4-(2-furyl)-5-(pyridin-2-ylcarbonyl)thiazol-2-yl]acetamide], 188 to 204 °C; in that of `O=C(CN1CCC(N2CCCCC2)CC1)Nc1nc(-c2ccco2)c(C(=O)c2ccccn2)s1` [Compound 270, N-[4-(2-Furyl)-5-(pyridin-2-ylcarbonyl)thiazol-2-yl]-2-(4-piperidinopiperidino)acetamide], 214 to 220 °C (dec.).
On to `O=C(CN1CCC(N2CCOCC2)CC1)Nc1nc(-c2ccco2)c(C(=O)c2ccccn2)s1` [Compound 271, N-[4-(2-Furyl)-5-(pyridin-2-ylcarbonyl)thiazol-2-yl]-2-(4-morpholinopiperidino)acetamide], for which the melting point lay within 149 to 150 °C.
In the case of `CN1CCN(CC(=O)Nc2nc(-c3ccco3)c(C(=O)c3ccccn3)s2)CC1` [Compound 272, N-[4-(2-Furyl)-5-(pyridin-2-ylcarbonyl)thiazol-2-yl]-2-(4-methylpiperazin-1-yl)acetamide] it was 136 to 145 °C; in that of `CCN1CCN(CC(=O)Nc2nc(-c3ccco3)c(C(=O)c3ccccn3)s2)CC1` [Compound 273, 2-(4-Ethylpiperazin-1-yl)-N-[4-(2-furyl)-5-(pyridin-2-ylcarbonyl)thiazol-2-yl]acetamide], 142 to 144 °C; in that of `CC(C)N1CCN(CC(=O)Nc2nc(-c3ccco3)c(C(=O)c3ccccn3)s2)CC1` [Compound 274, N-[4-(2-Furyl)-5-(pyridin-2-ylcarbonyl)thiazol-2-yl]-2-(4-isopropylpiperazin-1-yl)acetamide], 154 to 155 °C.
In turn, `CC(=O)N1CCN(CC(=O)Nc2nc(-c3ccco3)c(C(=O)c3ccccn3)s2)CC1` [Compound 275, 2-(4-Acetylpiperazin-1-yl)-N-[4-(2-furyl)-5-(pyridin-2-ylcarbonyl)thiazol-2-yl]acetamide] showed a melting point of 170 to 171 °C.
The value for `O=C(CN1CCN(c2ccccc2)CC1)Nc1nc(-c2ccco2)c(C(=O)c2ccccn2)s1` [Compound 276, N-[4-(2-Furyl)-5-(pyridin-2-ylcarbonyl)thiazol-2-yl]-2-(4-phenylpiperazin-1-yl)acetamide] was 203 to 204 °C; that for `O=C(CN1CCN(c2ccccn2)CC1)Nc1nc(-c2ccco2)c(C(=O)c2ccccn2)s1` [Compound 277, N-[4-(2-Furyl)-5-(pyridin-2-ylcarbonyl)thiazol-2-yl]-2-[4-(2-pyridyl)piperazin-1-yl]acetamide] was 215 to 218 °C.
`O=C(CN1CCN(c2ncccn2)CC1)Nc1nc(-c2ccco2)c(C(=O)c2ccccn2)s1` [Compound 278, N-[4-(2-Furyl)-5-(pyridin-2-ylcarbonyl)thiazol-2-yl]-2-[4-(2-pyrimidinyl)piperazin-1-yl]acetamide] showed a melting point of 199 to 200 °C.
In the case of `O=C(CN1CCN(C2CCOCC2)CC1)Nc1nc(-c2ccco2)c(C(=O)c2ccccn2)s1` [Compound 279, N-[4-(2-Furyl)-5-(pyridin-2-ylcarbonyl)thiazol-2-yl]-2-[4-(tetrahydropyran-4-yl)piperazin-1-yl]acetamide] it was 172 to 188 °C; in that of `O=C(CN1CCSC1)Nc1nc(-c2ccco2)c(C(=O)c2ccccn2)s1` [Compound 281, N-[4-(2-Furyl)-5-(pyridin-2-ylcarbonyl)thiazol-2-yl]-2-(1,3-thiazolidin-3-yl)acetamide], 153 to 155 °C.
The value for `O=C(CN1CCSCC1)Nc1nc(-c2ccco2)c(C(=O)c2ccccn2)s1` [Compound 282, N-[4-(2-Furyl)-5-(pyridin-2-ylcarbonyl)thiazol-2-yl]-2-thiomorpholinoacetamide] was 148 to 149 °C; that for `COc1cccc(C(=O)c2sc(NC(=O)c3ccncc3)nc2-c2ccco2)n1` [Compound 283, N-[4-(2-Furyl)-5-(6-methoxypyridin-2-ylcarbonyl)thiazol-2-yl]pyridine-4-carboxamide] was 247 to 250 °C.

Source of the values: patent US7718808B2, “Thiazole derivatives” (Kyowa Hakko Kirin Co., Ltd., priority 2003, dated 2010).
